Read-outs that look alike come from different tables or passages of the source.
How the values were obtained:
human μ-opioid receptor = target: T1, human μ-opioid receptor (Homo sapiens, UniProt P35372); assay: Human μ-opioid receptor radioligand assay ([3H]-DAMGO); type: binding
T1 construct: expressed in transfected cells; host or cells: CHO-K1
Experimental: Human μ-Opioid Receptor Radioligand Assay
To investigate binding properties of test compounds to human μ-opioid receptor, transfected CHO-K1 cell membranes and [^3H]-DAMGO (Perkin Elmer, ES-542-C), as the radioligand, were used. The assay was carried out with 20 μg of membrane suspension, 1 nM of [^3H]-DAMGO in either absence or presence of either buffer or 10 μM Naloxone for total and non-specific binding, respectively. Binding buffer contained Tris-HCl 50 mM, MgCl2 5 mM at pH 7.4. Plates were incubated at 27° C. for 60 minutes. After the incubation period, the reaction mix was then transferred to MultiScreen HTS, FC plates (Millipore), filtered and plates were washed 3 times with ice-cold 10 mM Tris-HCL (pH 7.4). Filters were dried and counted at approximately 40% efficiency in a MicroBeta scintillation counter (Perkin-Elmer) using EcoScint liquid scintillation cocktail, preferably, transfected CHO-K1 cell membranes (20 μg) were incubated with 1 nM of [^3H]-DAMGO in assay buffer containing Tris-HCl 50 mM, MgCl2 5 mM at pH 7.4. NBS (non-specific binding) was measured by adding 10 μM Naloxone. The binding of the test compound was measured at five different concentrations. Plates were incubated at 27° C. for 60 minutes. After the incubation period, the reaction mix was then transferred to MultiScreen HTS, FC plates (Millipore), filtered and plates were washed 3 times with ice-cold 10 mM Tris-HCL (pH 7.4). Filters were dried and counted at approximately 40% efficiency in a MicroBeta scintillation counter (Perkin-Elmer) using EcoScint liquid scintillation cocktail.

[1] = target: Human α2δ-1 subunit of Cav2.2 calcium channel (Homo sapiens, UniProt P54289); assay: Human α2δ-1 subunit of Cav2.2 calcium channel assay ([3H]-Gabapentin); type: binding
Experimental: Human α2δ-1 Subunit of Cav2.2 Calcium Channel Assay
Human α2δ-1 enriched membranes (2.5 μg) were incubated with 15 nM of radiolabeled [3H]-Gabapentin in assay buffer containing Hepes-KOH 10 mM, pH 7.4. NSB (non specific binding) was measured by adding 10 μM pregabalin. After 60 min incubation at 27° C., binding reaction was terminated by filtering through Multiscreen GF/C (Millipore) presoaked in 0.5% polyethyleneimine in Vacuum Manifold Station, followed by 3 washes with ice-cold filtration buffer containing 50 mM Tris-HCl, pH 7.4. Filter plates were dried at 60° C. for 1 hour and 30 μl of scintillation cocktail were added to each well before radioactivity reading. Readings were performed in a Trilux 1450 Microbeta radioactive counter (Perkin Elmer), i.e. Human α2δ-1 enriched membranes (2.5 μg) were incubated with 15 nM of radiolabeled [3H]-Gabapentin in assay buffer containing Hepes-KOH 10 mM, pH 7.4. NSB (non specific binding) was measured by adding 10 μM pregabalin. The binding of the test compound was measured at five different concentrations. After 60 min incubation at 27° C., binding reaction was terminated by filtering through Multiscreen GF/C (Millipore) presoaked in 0.5% polyethyleneimine in Vacuum Manifold Station, followed by 3 washes with ice-cold filtration buffer containing 50 mM Tris-HCl, pH 7.4. Filter plates were dried at 60° C. for 1 hour and 30 μl of scintillation cocktail were added to each well before radioactivity reading. Readings were performed in a Trilux 1450 Microbeta radioactive counter (Perkin Elmer).

[2] = transfected CHO-K1 cell membranes, 1 nM [3H]-DAMGO, read-out: Binding μ (Ki)
[3] = human α2δ-1 enriched membranes, 15 nM [3H]-Gabapentin, read-out: Binding α2δ-1 (Ki)

T1 sequence (P35372 whole entry): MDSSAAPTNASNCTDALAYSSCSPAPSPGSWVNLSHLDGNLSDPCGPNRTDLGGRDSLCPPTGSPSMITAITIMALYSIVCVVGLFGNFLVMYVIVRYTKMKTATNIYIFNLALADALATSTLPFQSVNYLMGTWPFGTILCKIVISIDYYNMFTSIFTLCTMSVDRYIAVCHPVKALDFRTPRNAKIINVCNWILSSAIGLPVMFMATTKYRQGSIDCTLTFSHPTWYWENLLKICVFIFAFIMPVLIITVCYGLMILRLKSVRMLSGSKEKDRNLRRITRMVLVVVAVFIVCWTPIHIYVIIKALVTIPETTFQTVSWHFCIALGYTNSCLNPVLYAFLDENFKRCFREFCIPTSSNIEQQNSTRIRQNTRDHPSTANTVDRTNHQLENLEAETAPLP
Human α2δ-1 subunit of Cav2.2 calcium channel, sequence (P54289 25-1103): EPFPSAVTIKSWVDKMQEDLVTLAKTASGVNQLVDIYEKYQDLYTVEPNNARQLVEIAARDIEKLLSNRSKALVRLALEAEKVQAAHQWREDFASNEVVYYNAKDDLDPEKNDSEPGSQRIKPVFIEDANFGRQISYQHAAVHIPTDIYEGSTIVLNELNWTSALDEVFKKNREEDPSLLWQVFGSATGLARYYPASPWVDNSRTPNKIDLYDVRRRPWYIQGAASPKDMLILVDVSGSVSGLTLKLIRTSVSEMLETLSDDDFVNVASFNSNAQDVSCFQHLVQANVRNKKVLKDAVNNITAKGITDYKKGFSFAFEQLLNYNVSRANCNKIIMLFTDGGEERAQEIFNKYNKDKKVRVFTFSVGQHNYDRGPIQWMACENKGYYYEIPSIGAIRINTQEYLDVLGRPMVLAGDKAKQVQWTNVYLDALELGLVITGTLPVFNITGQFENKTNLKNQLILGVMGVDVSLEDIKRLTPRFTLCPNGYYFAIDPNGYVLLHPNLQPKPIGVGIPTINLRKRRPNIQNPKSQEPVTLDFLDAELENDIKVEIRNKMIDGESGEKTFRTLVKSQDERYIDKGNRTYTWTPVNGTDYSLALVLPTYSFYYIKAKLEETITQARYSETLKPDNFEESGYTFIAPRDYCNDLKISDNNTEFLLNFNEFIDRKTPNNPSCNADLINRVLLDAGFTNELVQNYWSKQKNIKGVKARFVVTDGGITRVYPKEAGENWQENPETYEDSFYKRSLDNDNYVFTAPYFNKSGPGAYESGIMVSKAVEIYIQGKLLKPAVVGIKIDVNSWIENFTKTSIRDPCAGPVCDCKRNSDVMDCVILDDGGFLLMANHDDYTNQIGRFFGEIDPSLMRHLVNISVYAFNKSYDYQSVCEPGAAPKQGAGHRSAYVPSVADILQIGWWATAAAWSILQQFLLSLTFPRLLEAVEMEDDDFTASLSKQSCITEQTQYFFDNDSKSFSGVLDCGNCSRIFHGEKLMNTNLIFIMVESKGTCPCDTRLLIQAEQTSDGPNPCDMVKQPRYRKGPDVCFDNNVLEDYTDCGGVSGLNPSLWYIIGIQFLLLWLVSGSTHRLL

Structure (SMILES)	Ki (human μ-opioid receptor; [2]) [nM]	Ki [1, 3] [nM]	Ki (human μ-opioid receptor) [nM]	Ki [1] [nM]
Cc1nnc(N(C)C)c2nn(-c3ccccc3OC(CCNC3CC3)c3ccccc3)c(C)c12 (centres unmarked) [Example 27, 2-(2-(3-(cyclopropylamino)-1-phenylpropoxy)phenyl)-N,N,3,4-tetramethyl-2H-pyrazolo[3,4-d]pyridazin-7-amine]			100 to 500	500 to 5000
CNCCC(Oc1ccc(Br)cc1-n1nc2c(N(C)C)nnc(C)c2c1C)c1ccccc1 (centres unmarked) [Example 28, 2-(5-bromo-2-(3-(methylamino)-1-phenylpropoxy)phenyl)-N,N,3,4-tetramethyl-2H-pyrazolo[3,4-d]pyridazin-7-amine]	> 500	500 to 5000		
Cc1nnc(N(C)C)c2nn(-c3ccccc3OCC3NCCc4ccccc43)c(C)c12 (centres unmarked) [Example 29, N,N,3,4-tetramethyl-2-(2-((1,2,3,4-tetrahydroisoquinolin-1-yl)methoxy)phenyl)-2H-pyrazolo[3,4-d]pyridazin-7-amine]	> 500	500 to 5000		
Cc1nnc(N(C)C)c2nn(-c3ccccc3OCC3CNCc4ccccc43)c(C)c12 (centres unmarked) [Example 30, N,N,3,4-tetramethyl-2-(2-((1,2,3,4-tetrahydroisoquinolin-4-yl)methoxy)phenyl)-2H-pyrazolo[3,4-d]pyridazin-7-amine]	> 500	> 5000		
Cc1nnc(N(C)C)c2nn(-c3ccccc3OCCCNCCc3ccccc3)c(C)c12 [Example 31, N,N,3,4-tetramethyl-2-(2-(3-(phenethylamino)propoxy)phenyl)-2H-pyrazolo[3,4-d]pyridazin-7-amine]	> 500	500 to 5000		
Cc1nnc(N(C)C)c2nn(-c3ccccc3OC3CNCc4ccccc43)c(C)c12 (centres unmarked) [Example 32, N,N,3,4-tetramethyl-2-(2-((1,2,3,4-tetrahydroisoquinolin-4-yl)oxy)phenyl)-2H-pyrazolo[3,4-d]pyridazin-7-amine]	> 500	500 to 5000		
CCN(C)c1nnc(C)c2c(C)n(-c3ccccc3OC(CCNC)c3ccccc3)nc12 (centres unmarked) [Example 37, N-ethyl-N,3,4-trimethyl-2-(2-(3-(methylamino)-1-phenylpropoxy)phenyl)-2H-pyrazolo[3,4-d]pyridazin-7-amine]			100 to 500	500 to 5000
CNCCC(Oc1ccccc1-n1nc2c(N(C)C)nnc(C)c2c1C)c1ccc(F)cc1 (centres unmarked) [Example 42, 2-(2-(1-(4-fluorophenyl)-3-(methylamino)propoxy)phenyl)-N,N,3,4-tetramethyl-2H-pyrazolo[3,4-d]pyridazin-7-amine]			> 500	< 500
CNCCC(Oc1ccccc1-n1nc2c(N(C)C)nnc(C)c2c1C)c1cccc(F)c1 (centres unmarked) [Example 44, 2-(2-(1-(3-fluorophenyl)-3-(methylamino)propoxy)phenyl)-N,N,3,4-tetramethyl-2H-pyrazolo[3,4-d]pyridazin-7-amine]			100 to 500	< 500
CNCCCC(Oc1ccccc1-n1nc2c(N(C)C)nnc(C)c2c1C)c1ccccc1 (centres unmarked) [Example 46, N,N,3,4-tetramethyl-2-(2-(4-(methylamino)-1-phenylbutoxy)phenyl)-2H-pyrazolo[3,4-d]pyridazin-7-amine]	> 500	500 to 5000		
CCNCCC(Oc1ccccc1-n1nc2c(N(C)C)nnc(C)c2c1C)c1cccc(F)c1 (centres unmarked) [Example 47, 2-(2-(3-(ethylamino)-1-(3-fluorophenyl)propoxy)phenyl)-N,N,3,4-tetramethyl-2H-pyrazolo[3,4-d]pyridazin-7-amine]			100 to 500	< 500

Second part, led by results:

Ki (human μ-opioid receptor; [2]) [nM]	Ki [1, 3] [nM]	Structure (SMILES)	Ki (human μ-opioid receptor) [nM]	Ki [1] [nM]
> 500	500 to 5000	CNCCC(Oc1ccccc1-n1nc2c(N(C)C)nnc(C)c2c1C)c1nccs1 (centres unmarked) [Example 33, N,N,3,4-tetramethyl-2-(2-(3-(methylamino)-1-(thiazol-2-yl)propoxy)phenyl)-2H-pyrazolo[3,4-d]pyridazin-7-amine]		
> 500	500 to 5000	Cc1nnc(N(C)C)c2nn(-c3ccccc3OC(c3ccccc3)C3CNC3)c(C)c12 (centres unmarked) [Example 34, 2-(2-(azetidin-3-yl(phenyl)methoxy)phenyl)-N,N,3,4-tetramethyl-2H-pyrazolo[3,4-d]pyridazin-7-amine]		
> 500	500 to 5000	CNCCC(Oc1ccccc1-n1nc2c(N3CC(OC)C3)nnc(C)c2c1C)c1ccccc1 (centres unmarked) [Example 35, 3-(2-(7-(3-methoxyazetidin-1-yl)-3,4-dimethyl-2H-pyrazolo[3,4-d]pyridazin-2-yl)phenoxy)-N-methyl-3-phenylpropan-1-amine]		
> 500	500 to 5000	CNCCC(Oc1ccccc1-n1nc2c(N3CCCC3)nnc(C)c2c1C)c1ccccc1 (centres unmarked) [Example 36, 3-(2-(3,4-dimethyl-7-(pyrrolidin-1-yl)-2H-pyrazolo[3,4-d]pyridazin-2-yl)phenoxy)-N-methyl-3-phenylpropan-1-amine]		
> 500	500 to 5000	Cc1nnc(N(C)C)c2nn(-c3ccccc3OC(CCN)c3ccccc3)c(C)c12 (centres unmarked) [Example 38, 2-(2-(3-amino-1-phenylpropoxy)phenyl)-N,N,3,4-tetramethyl-2H-pyrazolo[3,4-d]pyridazin-7-amine]		
> 500	500 to 5000	CNCCC(Oc1ccccc1-n1nc2c(N3CCC3)nnc(C)c2c1C)c1ccccc1 (centres unmarked) [Example 39, 3-(2-(7-(azetidin-1-yl)-3,4-dimethyl-2H-pyrazolo[3,4-d]pyridazin-2-yl)phenoxy)-N-methyl-3-phenylpropan-1-amine]		
> 500	500 to 5000	CNCCCOc1ccccc1-n1nc2c(N(C)Cc3ccccc3)nnc(C)c2c1C [Example 40, N-benzyl-N,3,4-trimethyl-2-(2-(3-(methylamino)propoxy)phenyl)-2H-pyrazolo[3,4-d]pyridazin-7-amine]		
> 500	500 to 5000	CNCCC(Oc1ccccc1-n1nc2c(N(C)C)nnc(C)c2c1C)c1ccccc1F (centres unmarked) [Example 41, 2-(2-(1-(2-fluorophenyl)-3-(methylamino)propoxy)phenyl)-N,N,3,4-tetramethyl-2H-pyrazolo[3,4-d]pyridazin-7-amine]		
> 500	500 to 5000	COCC(CCN(C)Cc1ccccc1)Oc1ccccc1-n1nc2c(N(C)C)nnc(C)c2c1C (centres unmarked) [Example 43, 2-(2-((4-(benzyl(methyl)amino)-1-methoxybutan-2-yl)oxy)phenyl)-N,N,3,4-tetramethyl-2H-pyrazolo[3,4-d]pyridazin-7-amine]		
> 500	500 to 5000	CNCc1cccc(COc2ccccc2-n2nc3c(N(C)C)nnc(C)c3c2C)c1 [Example 45, N,N,3,4-tetramethyl-2-(2-((3-((methylamino)methyl)benzyl)oxy)phenyl)-2H-pyrazolo[3,4-d]pyridazin-7-amine]		
> 500	500 to 5000	CNCCC(Oc1ccccc1-n1nc2c(N(C)C)nnc(C)c2c1C)c1cc(F)cc(F)c1 (centres unmarked) [Example 48, 2-(2-(1-(3,5-difluorophenyl)-3-(methylamino)propoxy)phenyl)-N,N,3,4-tetramethyl-2H-pyrazolo[3,4-d]pyridazin-7-amine]		
> 500	500 to 5000	Cc1nnc(N(C)C)c2nn(-c3ccccc3O[C@H](c3ccccc3)[C@@H]3CNCCO3)c(C)c12 [Example 49, N,N,3,4-tetramethyl-2-(2-((R)-((S)-morpholin-2-yl)(phenyl)methoxy)phenyl)-2H-pyrazolo[3,4-d]pyridazin-7-amine]		
> 500	> 5000	Cc1nnc(N(C)C)c2nn(-c3ccccc3OC3CCNC3)c(C)c12 (centres unmarked) [Example 50, N,N,3,4-Tetramethyl-2-(2-(pyrrolidin-3-yloxy)phenyl)-2H-pyrazolo[3,4-d]pyridazin-7-amine]		
> 500	> 5000	CNCCC(COC)Oc1ccccc1-n1nc2c(N(C)C)nnc(C)c2c1C (centres unmarked) [Example 51, 2-(2-((1-methoxy-4-(methylamino)butan-2-yl)oxy)phenyl)-N,N,3,4-tetramethyl-2H-pyrazolo[3,4-d]pyridazin-7-amine]		
